Data from PubChem BioAssay AID2060904 (Molecular Pharmacology Branch, DTP, NCI, 2025).

System: 349418-098-R-PDC complex spheroid viability
Experiment: Anticancer human tumor 349418-098-R-PDC patient-derived lung adenocarcinoma cell line growth inhibition [RAS]
Settings: for viability, T/C: stronger effect = lower value
In short: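 Tumour cells grown as complex spheroids with HUVEC endothelial cells and mesenchymal stem cells, treated with RAS pathway inhibitor combinations. Each agent spans half-log steps from near clinical Cmax, or 10 microM where Cmax is unknown.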
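Note: spheroids exposed to compound for seven days before viability readout.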

CC1(O)CCCC1n1c(=O)c(C(F)F)cc2cnc(NC3CCN(S(C)(=O)=O)CC3)nc21 (stereo not drawn) + C=CC(=O)N1CCN(c2nc(OCC3CCCN3C)nc3c(F)c(-c4nc(N)cc(C)c4C(F)(F)F)c(Cl)cc23)C(C)C1
IC50 (curve of first compound, second compound 0.00316 µM): 76.8 nM
IC50 (curve of first compound, second compound 0.01 µM): 102 nM
IC50 (curve of first compound, second compound 0.0316 µM): 84.7 nM
IC50 (curve of first compound, second compound 0.1 µM): 62.2 nM
IC50 (curve of first compound, second compound 0.316 µM): 38.2 nM
IC50 (curve of first compound, second compound 1 µM): 53.8 nM
viability, T/C (second compound 0.00316 µM, first compound 0.0316 µM): 75.1%
viability, T/C (second compound 0.00316 µM, first compound 0.1 µM): 43.2%
viability, T/C (second compound 0.00316 µM, first compound 0.316 µM): 22.5%
viability, T/C (second compound 0.00316 µM, first compound 1 µM): 17%
viability, T/C (second compound 0.00316 µM, first compound 3.16 µM): 21.8%
viability, T/C (second compound 0.00316 µM, first compound 10 µM): 4.51%
viability, T/C (second compound 0.01 µM, first compound 0.0316 µM): 59.5%
viability, T/C (second compound 0.01 µM, first compound 0.1 µM): 52.6%
viability, T/C (second compound 0.01 µM, first compound 0.316 µM): 33.2%
viability, T/C (second compound 0.01 µM, first compound 1 µM): 17.8%
viability, T/C (second compound 0.01 µM, first compound 3.16 µM): 15.8%
viability, T/C (second compound 0.01 µM, first compound 10 µM): 3.59%
viability, T/C (second compound 0.0316 µM, first compound 0.0316 µM): 74.9%
viability, T/C (second compound 0.0316 µM, first compound 0.1 µM): 44.4%
viability, T/C (second compound 0.0316 µM, first compound 0.316 µM): 27.2%
viability, T/C (second compound 0.0316 µM, first compound 1 µM): 19.8%
viability, T/C (second compound 0.0316 µM, first compound 3.16 µM): 24.7%
viability, T/C (second compound 0.0316 µM, first compound 10 µM): 3.03%
viability, T/C (second compound 0.1 µM, first compound 0.0316 µM): 64.8%
viability, T/C (second compound 0.1 µM, first compound 0.1 µM): 41%
viability, T/C (second compound 0.1 µM, first compound 0.316 µM): 18.2%
viability, T/C (second compound 0.1 µM, first compound 1 µM): 25.8%
viability, T/C (second compound 0.1 µM, first compound 3.16 µM): 24.2%
viability, T/C (second compound 0.1 µM, first compound 10 µM): 2.89%
viability, T/C (second compound 0.316 µM, first compound 0.0316 µM): 52.6%
viability, T/C (second compound 0.316 µM, first compound 0.1 µM): 43.1%
viability, T/C (second compound 0.316 µM, first compound 0.316 µM): 20.6%
viability, T/C (second compound 0.316 µM, first compound 1 µM): 24.3%
viability, T/C (second compound 0.316 µM, first compound 3.16 µM): 18.1%
viability, T/C (second compound 0.316 µM, first compound 10 µM): 3.81%
viability, T/C (second compound 1 µM, first compound 0.0316 µM): 60.8%
viability, T/C (second compound 1 µM, first compound 0.1 µM): 36%
viability, T/C (second compound 1 µM, first compound 0.316 µM): 26.4%
viability, T/C (second compound 1 µM, first compound 1 µM): 25.4%
viability, T/C (second compound 1 µM, first compound 3.16 µM): 22.6%
viability, T/C (second compound 1 µM, first compound 10 µM): 4.16%

NC1c2ccccc2OC12CCN(c1cnc3c(N4CCCc5ncccc54)n[nH]c3n1)CC2 (stereo not drawn)
viability, T/C (compound 0.0316 µM): 102% [middle of 4 runs]
viability, T/C (compound 3.16 µM): 98.5% [middle of 4 runs]
viability, T/C (compound 10 µM): 68.6% [middle of 4 runs]
IC50 (curve of compound): > 10000 nM

CC(C)n1nc(-c2ccc3oc(N)nc3c2)c2c(N)ncnc21 + CCn1c(-c2cc(N3CCN(C)CC3)cnc2C(C)OC)c2c3cc(ccc31)-c1csc(n1)CC(NC(=O)C1CC1C)C(=O)N1CCCC(N1)C(=O)OCC(C)(C)C2
IC50 (curve of first compound, second compound 0.000949 µM): 2.3 nM
IC50 (curve of first compound, second compound 0.003 µM): 3.06 nM
IC50 (curve of first compound, second compound 0.00949 µM): 2.79 nM
IC50 (curve of first compound, second compound 0.03 µM): 3.57 nM
IC50 (curve of first compound, second compound 0.0949 µM): 1.99 nM
IC50 (curve of first compound, second compound 0.3 µM): 3.49 nM
viability, T/C (second compound 0.000949 µM, first compound 0.000316 µM): 97.9%
viability, T/C (second compound 0.000949 µM, first compound 0.001 µM): 75.8%
viability, T/C (second compound 0.000949 µM, first compound 0.00316 µM): 37.8%
viability, T/C (second compound 0.000949 µM, first compound 0.01 µM): 22.4%
viability, T/C (second compound 0.000949 µM, first compound 0.0316 µM): 8.76%
viability, T/C (second compound 0.000949 µM, first compound 0.1 µM): 7.18%
viability, T/C (second compound 0.003 µM, first compound 0.000316 µM): 87%
viability, T/C (second compound 0.003 µM, first compound 0.001 µM): 66.9%
viability, T/C (second compound 0.003 µM, first compound 0.00316 µM): 54.9%
viability, T/C (second compound 0.003 µM, first compound 0.01 µM): 18.6%
viability, T/C (second compound 0.003 µM, first compound 0.0316 µM): 7.75%
viability, T/C (second compound 0.003 µM, first compound 0.1 µM): 6.04%
viability, T/C (second compound 0.00949 µM, first compound 0.000316 µM): 106%
viability, T/C (second compound 0.00949 µM, first compound 0.001 µM): 84.4%
viability, T/C (second compound 0.00949 µM, first compound 0.00316 µM): 46.3%
viability, T/C (second compound 0.00949 µM, first compound 0.01 µM): 16.6%
viability, T/C (second compound 0.00949 µM, first compound 0.0316 µM): 7.24%
viability, T/C (second compound 0.00949 µM, first compound 0.1 µM): 5.27%
viability, T/C (second compound 0.03 µM, first compound 0.000316 µM): 100%
viability, T/C (second compound 0.03 µM, first compound 0.001 µM): 98.3%
viability, T/C (second compound 0.03 µM, first compound 0.00316 µM): 54.4%
viability, T/C (second compound 0.03 µM, first compound 0.01 µM): 11.8%
viability, T/C (second compound 0.03 µM, first compound 0.0316 µM): 8.66%
viability, T/C (second compound 0.03 µM, first compound 0.1 µM): 6.68%
viability, T/C (second compound 0.0949 µM, first compound 0.000316 µM): 111%
viability, T/C (second compound 0.0949 µM, first compound 0.001 µM): 67.4%
viability, T/C (second compound 0.0949 µM, first compound 0.00316 µM): 39.3%
viability, T/C (second compound 0.0949 µM, first compound 0.01 µM): 18.7%
viability, T/C (second compound 0.0949 µM, first compound 0.0316 µM): 7.91%
viability, T/C (second compound 0.0949 µM, first compound 0.1 µM): 5.64%
viability, T/C (second compound 0.3 µM, first compound 0.000316 µM): 94.7%
viability, T/C (second compound 0.3 µM, first compound 0.001 µM): 87.2%
viability, T/C (second compound 0.3 µM, first compound 0.00316 µM): 53.6%
viability, T/C (second compound 0.3 µM, first compound 0.01 µM): 14.6%
viability, T/C (second compound 0.3 µM, first compound 0.0316 µM): 8.69%
viability, T/C (second compound 0.3 µM, first compound 0.1 µM): 6.51%
